Reference: PubChem BioAssay (NCI)
“And” between values parts separate entries of the source, which are not always exact repeats. Equal values may be shown once.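 Test compounds were applied to cells in 96-well plates for 48 hours at 5 doses. GI50 marks 50% less growth. TGI: total growth inhibition.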

How the values were obtained:
Test in all cases: NCI anticancer screen, dose series, 48 h
KM12 colon = system: KM12 colon
SK-MEL-5 melanoma = system: SK-MEL-5 melanoma
SF-539 CNS = system: SF-539 CNS
786-0 renal = system: 786-0 renal
NCI-H23 lung = system: NCI-H23 lung
OVCAR-3 ovarian = system: OVCAR-3 ovarian
PC-3 prostate = system: PC-3 prostate
OVCAR-5 ovarian = system: OVCAR-5 ovarian
NCI-H460 lung = system: NCI-H460 lung
OVCAR-8 ovarian = system: OVCAR-8 ovarian

Structure (SMILES)	TGI (KM12 colon)	TGI (SK-MEL-5 melanoma)	TGI (SF-539 CNS)	TGI (786-0 renal)	TGI (NCI-H23 lung)	TGI (OVCAR-3 ovarian)	TGI (PC-3 prostate)	TGI (OVCAR-5 ovarian)	TGI (NCI-H460 lung)	TGI (OVCAR-8 ovarian)	GI50 (OVCAR-3 ovarian)
CN(CCn1cnc2c1c(=O)n(C)c(=O)n2C)C1CCCCC1	> 100 µM	> 100 µM	> 100 µM	> 100 µM	> 100 µM	> 100 µM	> 100 µM	> 100 µM	> 100 µM	> 100 µM	
CC(=O)OC(/C=C/c1ccccc1)P1(=O)N(CC(C)(C)C)[C@@H]2CCCC[C@H]2N1CC(C)(C)C (some centres undefined)	26.1 µM and 21.4 µM	17.4 µM and 18.7 µM	21.2 µM and 28.6 µM	21.4 µM and 21.1 µM	20.3 µM and 17.1 µM	25.4 µM and 17.1 µM	12.1 µM and 10.1 µM	23.4 µM and 23.5 µM	21.1 µM and 19 µM	19.7 µM and 21.6 µM	8.41 µM and 3.47 µM
CCOC(=O)C1=CNC(C(=O)OCC)C1c1cccn1-c1ccc(Cl)cc1[N+](=O)[O-] (centres undefined)	47.5 µM	30.3 µM	30.8 µM	45.9 µM	> 100 µM	30.3 µM	68.9 µM	60.3 µM	61.3 µM	90.6 µM	
NC(N)=N/N=C/c1nc2n(c1[N+](=O)[O-])CCS2	> 100 µM	34.4 µM	> 100 µM	> 100 µM	42.6 µM	70.2 µM	> 100 µM	> 100 µM	48.4 µM	> 100 µM	
O=C(/C=C/c1ccc(O)cc1)c1ccc2c(c1)OCO2	33.7 µM	29.4 µM	26.8 µM	57.7 µM	39.2 µM	41 µM	62.2 µM	93 µM	77.2 µM	29.6 µM	
O=C(O)c1cc2ccccc2c(N=Nc2ccc(S(=O)(=O)Nc3nccs3)cc2)c1O	> 100 µM	> 100 µM	> 100 µM	> 100 µM	> 100 µM	> 100 µM	> 100 µM	> 100 µM	> 100 µM	> 100 µM	
S=C(NC1=NCC(CN2CCN(c3ccccc3)CC2)O1)Nc1ccccc1 (centres undefined)	> 100 µM	> 100 µM	> 100 µM	> 100 µM	> 100 µM	> 100 µM	> 100 µM	> 100 µM	> 100 µM	> 100 µM	
C1CCC2(CC1)O[C@@H]1[C@@H](O2)[C@@H](O[C@H]2O[C@@H]3COC4(CCCCC4)O[C@H]3[C@@H]3OC4(CCCCC4)O[C@@H]23)O[C@@H]2COC3(CCCCC3)O[C@@H]12	> 100 µM	> 100 µM	> 100 µM	> 100 µM	> 100 µM	> 100 µM	> 100 µM	> 100 µM		> 100 µM	
CC(=O)OCCOCn1c2c(c(=S)[nH]c1=O)CCC2	> 100 µM	> 100 µM	> 100 µM	> 100 µM	> 100 µM	> 100 µM	> 100 µM	> 100 µM		> 100 µM	
O=C1CCC2(CC1CC(Sc1ccccc1)Sc1ccccc1)OCCO2 (centres undefined)	> 100 µM	38 µM	> 100 µM	> 100 µM	> 100 µM	> 100 µM	> 100 µM	> 100 µM	> 100 µM	> 100 µM	
COC(=O)CCC(=O)NC1=C(NCc2ccccc2)C(=O)c2ccccc2C1=O	> 100 µM	24.9 µM	43.8 µM	> 100 µM	64.6 µM	33.3 µM	> 100 µM	98.7 µM	> 100 µM	> 100 µM	
Nc1nc(Cl)c(N)c(NCC2(CO)CC(OCc3ccccc3)C2)n1 (centres undefined)	> 100 µM	> 100 µM	> 100 µM	> 100 µM	> 100 µM	> 100 µM	> 100 µM	> 100 µM	> 100 µM	> 100 µM	
COC(=O)/C=C\n1c(C)cc(=O)[nH]c1=O	> 100 µM	> 100 µM	> 100 µM	> 100 µM	> 100 µM	> 100 µM	> 100 µM	> 100 µM	> 100 µM	> 100 µM	
O=C(c1ccccc1)N1CCN(C(=S)N(C(=O)c2ccccc2)c2ccccc2)C1=S	20.5 µM	26.5 µM	7.07 µM	5.31 µM	11.6 µM	15.4 µM	20.5 µM	42.1 µM	44.7 µM	13.3 µM	
Nc1ncnc2c1nnn2C1C=CC(COS(N)(=O)=O)C1 (centres undefined)	86.3 µM	15.9 µM	7.39 µM	33.3 µM	18.2 µM	96.1 µM	26.9 µM	49.3 µM	> 100 µM	55 µM	
OC(c1cc2ccccc2o1)c1cc2ccccc2s1 (centres undefined)	> 10 µM	> 10 µM	> 10 µM	> 10 µM	> 10 µM	> 10 µM	> 10 µM	> 10 µM	> 10 µM	> 10 µM	
COC(=O)CCC(=O)NC1=C(Nc2ccc(OC)cc2)C(=O)c2ccccc2C1=O	45.5 µM	3.57 µM	27.9 µM	76.2 µM	22.7 µM	12.6 µM	> 92.2 µM	31 µM	21.1 µM	75.6 µM	
COC(=O)C(Cc1c(C2Nc3ccccc3C2CC(NC(=O)CNC(C)=O)C(=O)OC)[nH]c2ccccc12)NC(=O)CNC(C)=O (centres undefined)	> 100 µM	> 100 µM	> 100 µM	> 100 µM	> 100 µM	> 100 µM	> 100 µM	> 100 µM	> 100 µM	> 100 µM	
CC[C@]12C=CCN3CC[C@@]4(c5cc(Br)c(OC)cc5N(C)[C@H]4[C@@](O)(C(=O)NN)[C@@H]1O)[C@@H]32	> 100 µM	> 100 µM	69.3 µM	> 100 µM	> 100 µM	> 100 µM	> 100 µM	> 100 µM	> 100 µM	> 100 µM	
CCCN1C(=O)CC(C)N(Cc2ccccc2Cl)C1=S (centres undefined)	92.5 µM	33.4 µM	36 µM	> 100 µM	56.7 µM	88.8 µM	55.7 µM	> 100 µM	> 100 µM	72.1 µM	
COC(=O)[C@@H]1[C@@H](c2cccc(Cl)c2)[C@H](C(=O)OC)C2(C[C@@]1(C)O)NCCS2 (some centres undefined)	> 100 µM	> 100 µM	> 100 µM	> 100 µM	> 100 µM	> 100 µM	> 100 µM	> 100 µM	> 100 µM	> 100 µM	
